Measurements from patent US20090017103A1, “Antisense oligonucleotides for prevention of metastasis formation of cancer cells” (priority 2003, published 2009).
Where “and” joins values, the source holds several entries; their conditions need not be identical. Equal entries are not always repeated. Entries after “also recorded” stand apart in the source; their conditions may differ. Marks after values point to notes of the source that are not given here.

Columns and labels:
[1] = system: MDA-MB-231 breast cancer cells; assay: Clonogenicity assay (colony formation); assay type: cell-based, human; conditions: for inhibition of colony formation (colony growth inhibition): single exposure; for reduction of colony counts: twofold exposure
How it was run: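 MDA-MB-231 cells given lipofectamine-complexed ASO (5, 10 or 20 μM, 12 h) and/or ErPC3 (10, 14, 20 μM, 24 h), singly or in sequential cycles, then grown 48-72 h. 5000 cells plated in methylcellulose/30% FBS; MTT-stained colonies (≥30 cells) counted after 5-7 days.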

[2] = system: MDA-MB-231^GFP cells; assay: In vivo model with pretreated MDA-MB-231^GFP cells (osteolytic bone metastasis); set-up: species or system nude rats; lesion size of the rat(s) that developed lytic metastasis, % of control / lesion sizes with respect to all animals of the group compared to untreated control / lesion size of individual animal compared to the untreated control / T/C % (mean lesion size compared to untreated control): concentration or dose not given beside the values; conditions: for T/C × 100: mean lesion size vs untreated control rats; for Incidence of metastasis: cells pretreated in vitro (10 μM);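 for Mean size of lesion: mean lesion size in relative units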
[3] = system: MDA-MB-231^GFP cells; assay: In vivo treatment with mini-osmotic pumps (osteolytic bone metastasis model);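 for Mean size of lesion: mean lesion size in relative units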;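 for Size of lesion (per animal): lesion size in relative units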; set-up: species or system nude rats; conditions: for X-ray scan of hind legs: lytic lesions (in words): FIG. 5-7; for T/C / Mean size of lesion / Size of lesion (per animal): mini-osmotic pumps; for T/C: vs NSO control; for T/C × 100: mean lesion size vs NSO control rats; for Incidence of metastasis: mini-osmotic pumps s.c., 7 mg/kg daily over four weeks

5′-CTAACTTAAAAAACAAAAGA-3′ (antisense CTAACTTAAAAAACAAAAGA; all phosphorothioate, sugars by position and methylation of C not given here) [ASO-OPN-4]
% Control ([1]; Exp. III a, repeated exposure 2 × 5 μM): 84%
Mean colony no. ([1]; Exp. III a, repeated exposure 2 × 5 μM, control 456): 381^6,8)
% Control ([1]; Exp. III a, repeated exposure 2 × 10 μM): 51%
Mean colony no. ([1]; Exp. III a, repeated exposure 2 × 10 μM, control 456): 233^7,8)
% Control ([1]; Exp. III a, repeated exposure 2 × 20 μM): 40%
Mean colony no. ([1]; Exp. III a, repeated exposure 2 × 20 μM, control 456): 181^7)
% Control ([1]; Experiment I, single treatment, 5 μM): 85%
Mean colony no. ([1]; Experiment I, single treatment, 5 μM, control 778): 658^6)
% Control ([1]; Experiment I, single treatment, 10 μM): 61%
Mean colony no. ([1]; Experiment I, single treatment, 10 μM, control 778): 475^7)
% Control ([1]; Experiment I, single treatment, 20 μM): 53%
Mean colony no. ([1]; Experiment I, single treatment, 20 μM, control 778): 416
% Control ([1]; Experiment III b, repeated exposure 2 × 5 μM): 63%
Mean colony no. ([1]; Experiment III b, repeated exposure 2 × 5 μM, control 517): 330^6,8)
% Control ([1]; Experiment III b, repeated exposure 2 × 10 μM): 57%
Mean colony no. ([1]; Experiment III b, repeated exposure 2 × 10 μM, control 517): 296^7,8)
% Control ([1]; Experiment III b, repeated exposure 2 × 20 μM): 50%
Mean colony no. ([1]; Experiment III b, repeated exposure 2 × 20 μM, control 517): 258^8)
inhibition of colony formation (colony growth inhibition) ([1]; 5 μM): 15%
inhibition of colony formation (colony growth inhibition) ([1]; 10 μM): 39%
inhibition of colony formation (colony growth inhibition) ([1]; 20 μM, listed as ASO-OPN-04, 20 µM): 47% and 46%
reduction of colony counts ([1]; 5 μM): 16%
reduction of colony counts ([1]; 20 μM): 60%
repeated exposure compared with single exposure, colony formation (in words) ([1]; twofold vs single ASO exposure): more effective than single exposure
T/C × 100 ([2]; 4 weeks): 3.9
T/C × 100 ([2]; 6 weeks): 3.8
T/C × 100 ([2]; 8 weeks): 4.3
X-ray scan of hind legs: osteolytic lesions (in words) ([2]; FIG. 3 and FIG. 4, one rat each, cells pre-exposed, listed as ASO-OPN-04): no osteolysis; also recorded: no visible lytic lesions
rats in which formation of osteolytic metastasis was inhibited (no visible metastasis) ([2]; cells pre-exposed to ASO, observation period of eight weeks, listed as ASO-OPN-04): Three of four and 3 of 4
Incidence of metastasis ([2]; observation period 4 weeks): 1/4
Mean size of lesion ([2]; observation period 4 weeks, pretreated cells): 8.5 R.U.
Incidence of metastasis ([2]; observation period 6 weeks): 1/4
Mean size of lesion ([2]; observation period 6 weeks, pretreated cells): 11.5 R.U.
Incidence of metastasis ([2]; observation period 8 weeks): 1/4^4)
Mean size of lesion ([2]; observation period 8 weeks, pretreated cells): 15 R.U.
T/C % (mean lesion size compared to untreated control) ([2]; pretreated cells, after eight weeks): 4.3%
lesion sizes with respect to all animals of the group compared to untreated control ([2]; pretreated cells, over observation period week 4 to week 8): about 4%
lesion sizes of the one metastasis-bearing animal compared to the control ([2]; pretreated cells, overall observation period (8 weeks)): about 16%
lesion size of the rat(s) that developed lytic metastasis ([2]; pretreated cells, week 4): 34 R.U.
lesion size of the rat(s) that developed lytic metastasis, % of control ([2]; pretreated cells, week 4, vs mean of the two control groups (197 R.U.)): 17%
lesion size of the rat(s) that developed lytic metastasis ([2]; pretreated cells, week 8): 60 R.U.
lesion size of the rat(s) that developed lytic metastasis, % of control ([2]; pretreated cells, week 8, vs mean of the two control groups (416 R.U.)): 17%
X-ray scan of hind legs: lytic lesions (in words) ([3]; eight weeks after tumor cell implantation): clear increase of lytic lesions in the tibia, however new formation of bone tissue at the edges of the lesions
X-ray scan of hind legs: lytic lesions (in words) ([3]; four weeks after tumor cell implantation, therapy from implantation): small lytic lesions in the tibia
X-ray scan of hind legs: lytic lesions (in words) ([3]; six weeks after tumor cell implantation): visible lytic lesions in the tibia
X-ray scan of hind legs: lytic lesions (in words) ([3]; ten weeks after tumor cell implantation): a decrease of the lesions is clearly visible
T/C ([3]; week 4): 58%
T/C ([3]; week 12): 26%
T/C × 100 ([3]; week 4): 58
Mean size of lesion ([3]; week 4): 19 R.U.
Size of lesion (per animal) ([3]; week 4): 20 R.U. and 41 R.U. and 0 R.U. (2×) and 34 R.U.
Incidence of metastasis ([3]; week 4, 7 mg/kg): three out of five and 3/5
T/C × 100 ([3]; week 6): 41
Mean size of lesion ([3]; week 6): 73 R.U.
Size of lesion (per animal) ([3]; week 6): 35 R.U. and 285 R.U. and 0 R.U. (2×) and 46 R.U.
Incidence of metastasis ([3]; week 6): 3/5
T/C × 100 ([3]; week 8): 45
Mean size of lesion ([3]; week 8): 124 R.U.
Size of lesion (per animal) ([3]; week 8): 117 R.U. and 415 R.U. and 27 R.U. and 60 R.U. and 0 R.U.
Incidence of metastasis ([3]; week 8): 4/5
T/C × 100 ([3]; week 9): 48
Mean size of lesion ([3]; week 9): 134 R.U.
Size of lesion (per animal) ([3]; week 9): 435 R.U. and 123 R.U. and 53 R.U. and 57 R.U. and 0 R.U.
Incidence of metastasis ([3]; week 9): 4/5
T/C × 100 ([3]; week 10): 29
Mean size of lesion ([3]; week 10): 124 R.U.
Size of lesion (per animal) ([3]; week 10): 74 R.U. and 67 R.U. and 45 R.U. and 0 R.U.
Incidence of metastasis ([3]; week 10): 4/5
T/C × 100 ([3]; week 12): 26
Mean size of lesion ([3]; week 12): 112 R.U.
Size of lesion (per animal) ([3]; week 12): 31 R.U. (2×) and 64 R.U. and 0 R.U.
Incidence of metastasis ([3]; week 12): 3
